Measured values as given in ChEMBL document CHEMBL2321784, “Discovery of 5-benzyl-3-phenyl-4,5-dihydroisoxazoles and 5-benzyl-3-phenyl-1,4,2-dioxazoles as potent firefly luciferase inhibitors” (J Med Chem, 2013).

Tests used:
[1] = target: Luciferin 4-monooxygenase (Photinus pyralis) (UniProt P08659); assay: Inhibition of recombinant firefly luciferase at 1 nM after 20 mins by luminescence assay
[2] = target: Luciferin 4-monooxygenase (Photinus pyralis) (UniProt P08659); assay: Inhibition of recombinant firefly luciferase at 10 uM after 20 mins by luminescence assay
[3] = target: Luciferin 4-monooxygenase (Photinus pyralis, UniProt P08659); assay: Inhibition of recombinant firefly luciferase after 20 mins by luminescence assay
Sequence of Luciferin 4-monooxygenase (P08659 whole entry): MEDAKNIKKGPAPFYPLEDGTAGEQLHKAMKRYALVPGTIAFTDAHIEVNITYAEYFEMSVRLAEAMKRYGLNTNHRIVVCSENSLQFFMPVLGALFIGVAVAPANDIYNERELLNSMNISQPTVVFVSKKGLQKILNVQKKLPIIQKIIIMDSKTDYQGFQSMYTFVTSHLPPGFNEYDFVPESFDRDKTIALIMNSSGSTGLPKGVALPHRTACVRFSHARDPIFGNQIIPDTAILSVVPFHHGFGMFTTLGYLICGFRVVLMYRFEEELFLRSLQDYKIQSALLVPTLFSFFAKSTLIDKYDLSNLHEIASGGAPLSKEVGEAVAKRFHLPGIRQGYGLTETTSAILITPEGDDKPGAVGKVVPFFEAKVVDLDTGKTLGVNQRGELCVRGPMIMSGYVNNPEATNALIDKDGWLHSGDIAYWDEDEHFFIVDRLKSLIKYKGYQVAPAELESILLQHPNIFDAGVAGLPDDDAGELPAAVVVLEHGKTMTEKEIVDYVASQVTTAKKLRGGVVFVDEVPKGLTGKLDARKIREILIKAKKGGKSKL

Sequence of Luciferin 4-monooxygenase (Photinus pyralis) (P08659 whole entry): as above

Compound	inhibition [1] [%]	inhibition [2] [%]	pIC50 [3]	IC50 [3] [nM]
Clc1ccccc1C1=NOC(Cc2ccccc2)C1 (racemic)	50.7	99.8	–	0.933
Fc1ccccc1C1=NO[C@@H](Cc2ccccc2)C1	11.3	83	–	1020
COc1ccccc1C1=NO[C@@H](Cc2ccccc2)C1	5.2	57.5	–	6920
CC1(Cc2ccccc2)CC(c2ccc(Cl)cc2)=NO1 (racemic)	28.7	95.8	–	32.4
Fc1ccc(C2=NO[C@@H](Cc3ccccc3)C2)cc1	7.7	85.6	–	741
Fc1cccc(C2=NO[C@@H](Cc3ccccc3)C2)c1	-3.7	84.1	–	1000
COc1ccccc1CC1CC(c2ccc(Cl)cc2)=NO1 (racemic)	29.8	91.8	–	16.2
Oc1ccccc1C1=NO[C@H](Cc2ccccc2)C1	48.1	98.4	–	1.95
Clc1cccc(C2=NOC(Cc3ccccc3)C2)c1 (racemic)	26.1	94.8	–	15.1
Clc1ccc(C2=NOC(CCc3ccccc3)C2)cc1 (racemic)	1.5	64.2	–	3240
Clc1ccc(C2=NO[C@@H](Cc3cccc4ccccc34)C2)cc1	1.9	36.6	> 5	–
COc1ccc(C2=NO[C@H](Cc3ccccc3)O2)cc1	56.1	99.5	–	0.955
COc1cccc(C2=NO[C@@H](Cc3ccccc3)C2)c1	9.6	75.3	–	1950
CCc1ccc(C[C@@H]2CC(c3ccc(Cl)cc3)=NO2)cc1	6.3	29.4	> 5	–
c1ccc(C[C@@H]2CC(c3ccccc3)=NO2)cc1	47.1	99.5	–	1.58
c1ccc(C[C@@H]2CC(c3cccc4ccccc34)=NO2)cc1	3	62.2	–	2510
COc1ccc(C2=NO[C@@H](Cc3ccccc3)O2)cc1	42	98.6	–	5.25
Clc1ccc(C2=NO[C@H](Cc3cccc4ccccc34)C2)cc1	2	40.9	> 5	–
Oc1ccc(/C=C/c2cc(O)cc(O)c2)cc1	6.8	99.6	–	–
COc1ccc(C2=NO[C@@H](CCc3ccccc3)C2)cc1	2.5	6.8	–	–
COc1ccc(CC2CC(c3ccc(Cl)cc3)=NO2)cc1OC (racemic)	0.9	2.2	–	–

More lines, now with the values ahead:

inhibition [1] [%]	inhibition [2] [%]	pIC50 [3]	IC50 [3] [nM]	Compound
1	1.7	–	–	COc1ccc(C[C@H]2CC(c3ccc(Cl)cc3)=NO2)cc1
3.8	30.4	> 5	–	COc1ccc(C[C@@H]2CC(c3ccc(Cl)cc3)=NO2)cc1
20.6	96.7	–	17	COc1cccc(C[C@@H]2CC(c3ccc(Cl)cc3)=NO2)c1
1.7	31.9	> 5	–	CC(C)c1ccc(C[C@H]2CC(c3ccc(Cl)cc3)=NO2)cc1
17.7	88.3	–	417	Clc1ccc(C2=NO[C@@H](Cc3ccccc3)C2)cc1
53	99.2	–	0.871	Fc1ccc(C[C@@H]2CC(c3ccc(Cl)cc3)=NO2)cc1
1.1	33.6	> 5	–	COc1cccc(C[C@H]2CC(c3ccc(Cl)cc3)=NO2)c1
3.3	3.1	–	–	COc1ccc(C[C@H]2CC(c3ccc(OC)cc3)=NO2)cc1
0.4	0.7	–	–	CC(C)c1ccc(C[C@@H]2CC(c3ccc(Cl)cc3)=NO2)cc1
-1.9	41.3	> 5	–	COc1ccc(C2=NO[C@@H](Cc3ccc(F)cc3)C2)cc1
